Assay results as given in PubChem BioAssay AID248 (DTP/NCI, 2004).
Values joined by “and” are separate entries in the source; they are usually repeats but may differ in a detail not shown here. Equal entries are not always repeated. Toxic doses and inconclusive results are not listed. Cut-off read from the data, not from the text of the source: active = T/C of 150% or more; inactive = T/C below 125%.

System: L1210 leukemia ip in BDF1 mice, survival T/C
Assay: NCI In Vivo Anticancer Drug Screen. Data for tumor model L1210 Leukemia (intraperitoneal) in B6D2F1 (BDF1) mice
Details: endpoint: mean survival time, higher = longer survival
Summary of the method: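 Antitumor effect is assessed in tumor-bearing animals. Survival in the compound arm is compared with a vehicle-dosed control arm and expressed as their quotient.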

[1] = dose: 100.0 mg/kg/injection, schedule: Q01DX009 (ip), vehicle: Klucel (hydroxypropylcellulose) (HPC)
[2] = dose: 100.0 mg/kg/injection, schedule: Q04DX003 (ip), vehicle: Klucel (hydroxypropylcellulose) (HPC)
[3] = dose: 200.0 mg/kg/injection, schedule: Q01DX009 (ip), vehicle: Klucel (hydroxypropylcellulose) (HPC)
[4] = dose: 200.0 mg/kg/injection, schedule: Q04DX003 (ip), vehicle: Klucel (hydroxypropylcellulose) (HPC)
[5] = dose: 400.0 mg/kg/injection, schedule: Q01DX009 (ip), vehicle: Klucel (hydroxypropylcellulose) (HPC)
[6] = dose: 400.0 mg/kg/injection, schedule: Q04DX003 (ip), vehicle: Klucel (hydroxypropylcellulose) (HPC)
[7] = dose: 100.0 mg/kg/injection, schedule: Q04DX003 (ip), vehicle: saline with Tween-80
[8] = dose: 200.0 mg/kg/injection, schedule: Q04DX003 (ip), vehicle: saline with Tween-80
[9] = dose: 25.0 mg/kg/injection, schedule: Q01DX009 (ip), vehicle: saline with Tween-80
[10] = dose: 50.0 mg/kg/injection, schedule: Q01DX009 (ip), vehicle: saline with Tween-80
[11] = dose: 100.0 mg/kg/injection, schedule: Q01DX009 (ip), vehicle: saline with Tween-80

Measured: T/C

O=C1CCC(N2C(=O)c3ccccc3C2=O)C(=O)N1 (configuration not stated)
inactive: dose: 25.0 mg/kg/injection, schedule: Q01DX009 (ip), vehicle: Klucel (hydroxypropylcellulose) (HPC) 112 % of control | dose: 25.0 mg/kg/injection, schedule: Q04DX003 (ip), vehicle: Klucel (hydroxypropylcellulose) (HPC) 109 % of control | dose: 31.3 mg/kg/injection, schedule: Q01DX Z (ip), vehicle: saline 102 % of control | dose: 50.0 mg/kg/injection, schedule: Q01DX001 (ip), vehicle: saline 105 % of control | dose: 50.0 mg/kg/injection, schedule: Q01DX009 (ip), vehicle: Klucel (hydroxypropylcellulose) (HPC) 111 % of control | dose: 50.0 mg/kg/injection, schedule: Q04DX003 (ip), vehicle: Klucel (hydroxypropylcellulose) (HPC) 95 % of control | dose: 62.5 mg/kg/injection, schedule: Q01DX Z (ip), vehicle: saline 94 % of control | dose: 100.0 mg/kg/injection, schedule: Q01DX001 (ip), vehicle: saline 105 % of control | [1] 103 % of control | dose: 100.0 mg/kg/injection, schedule: Q01DX009 (ip), vehicle: saline 96 % of control | [2] 98 % of control | dose: 125.0 mg/kg/injection, schedule: Q01DX Z (ip), vehicle: saline 104 % of control | dose: 200.0 mg/kg/injection, schedule: Q01DX001 (ip), vehicle: saline 111 % of control | [3] 100 % of control | dose: 200.0 mg/kg/injection, schedule: Q01DX009 (ip), vehicle: saline 102 % of control | [4] 98 % of control | dose: 250.0 mg/kg/injection, schedule: Q01DX Z (ip), vehicle: saline 102 % of control | dose: 400.0 mg/kg/injection, schedule: Q01DX001 (ip), vehicle: saline 109 % of control | [5] 101 % of control | dose: 400.0 mg/kg/injection, schedule: Q01DX009 (ip), vehicle: saline 98 % of control | [6] 106 % of control | dose: 800.0 mg/kg/injection, schedule: Q01DX009 (ip), vehicle: saline 95 % of control

O=[N+]([O-])c1cccc(C=Nc2cc(Cl)ccc2Cl)c1
inactive: dose: 75.0 mg/kg/injection, schedule: Q04DX003 (ip), vehicle: Klucel (hydroxypropylcellulose) (HPC) 106 % of control | dose: 100.0 mg/kg/injection, schedule: Q01DX001 (ip), vehicle: Klucel (hydroxypropylcellulose) (HPC) 101 % of control | dose: 150.0 mg/kg/injection, schedule: Q04DX003 (ip), vehicle: Klucel (hydroxypropylcellulose) (HPC) 95 % of control | dose: 200.0 mg/kg/injection, schedule: Q01DX001 (ip), vehicle: Klucel (hydroxypropylcellulose) (HPC) 107 % of control | dose: 300.0 mg/kg/injection, schedule: Q04DX003 (ip), vehicle: Klucel (hydroxypropylcellulose) (HPC) 98 % of control | dose: 400.0 mg/kg/injection, schedule: Q01DX001 (ip), vehicle: Klucel (hydroxypropylcellulose) (HPC) 102 % of control

N#C/C(=C\c1cc(Br)cc(Br)c1O)c1ccc([N+](=O)[O-])cc1
inactive: [7] 97 % of control | [8] 87 % of control | dose: 400.0 mg/kg/injection, schedule: Q04DX003 (ip), vehicle: saline with Tween-80 102 % of control

O=c1[nH]c(=O)c2c3c(sc2[nH]1)CCCC3
inactive: dose: 100.0 mg/kg/injection, schedule: Q01DX001 (ip), vehicle: saline sonified 91 % of control | dose: 200.0 mg/kg/injection, schedule: Q01DX001 (ip), vehicle: saline sonified 91 % of control | dose: 400.0 mg/kg/injection, schedule: Q01DX001 (ip), vehicle: saline sonified 103 % of control

Cc1cc2c(c(=O)n1C)COC2=O
inactive: dose: 100.0 mg/kg/injection, schedule: Q04DX003 (ip), vehicle: other 100 % of control | dose: 200.0 mg/kg/injection, schedule: Q04DX003 (ip), vehicle: other 100 % of control | dose: 400.0 mg/kg/injection, schedule: Q04DX003 (ip), vehicle: other 98 % of control

CC(C)C1(C)NC(=O)NC1=O (configuration not stated)
inactive: dose: 100.0 mg/kg/injection, schedule: Q04DX003 (ip), vehicle: saline 110 % of control | dose: 200.0 mg/kg/injection, schedule: Q04DX003 (ip), vehicle: saline 105 % of control | dose: 400.0 mg/kg/injection, schedule: Q04DX003 (ip), vehicle: saline 100 % of control

CC(Cl)CN(CC(C)Cl)C(=O)Oc1ccccc1[N+](=O)[O-] (configuration not stated)
inactive: [1] 93 % of control | [3] 104 % of control | [5] 93 % of control

CCCCCOP(=O)(Cc1ccc(Cl)cc1)OCCCCC
inactive: [2] 87 % of control | [4] 90 % of control | [6] 100 % of control

C1=CC=CN(c2ccccc2)C=C1
inactive: [1] 108 % of control | [3] 104 % of control

N#CC(C#N)C1c2ccccc2Nc2ccccc21
inactive: dose: 12.5 mg/kg/injection, schedule: Q01DX009 (ip), vehicle: saline with Tween-80 89 % of control | [9] 89 % of control | [10] 98 % of control and 89 % of control

CCC[CH2][Hg][O]C(C)=O
inactive: dose: 3.13 mg/kg/injection, schedule: Q01DX009 (ip), vehicle: saline sonified 89 % of control | dose: 6.25 mg/kg/injection, schedule: Q01DX009 (ip), vehicle: saline sonified 89 % of control | dose: 6.25 mg/kg/injection, schedule: Q04DX003 (ip), vehicle: Klucel (hydroxypropylcellulose) (HPC) 100 % of control | dose: 12.5 mg/kg/injection, schedule: Q01DX009 (ip), vehicle: saline sonified 87 % of control | dose: 12.5 mg/kg/injection, schedule: Q04DX003 (ip), vehicle: Klucel (hydroxypropylcellulose) (HPC) 92 % of control

CN(C)CN1C(=O)c2ccccc2C1=O
inactive: [1] 103 % of control | [3] 100 % of control | [5] 104 % of control

CCCC(CCC)NC(CC)COC(=O)c1ccc(N)cc1 (configuration not stated)
inactive: dose: 75.0 mg/kg/injection, schedule: Q01DX001 (ip), vehicle: other 97 % of control

CC(=O)NC(C)(NC(=O)CCl)C(=O)O (configuration not stated)
inactive: dose: 100.0 mg/kg/injection, schedule: Q01DX001 (ip), vehicle: saline with Tween-80 98 % of control | [11] 94 % of control and 108 % of control | dose: 100.0 mg/kg/injection, schedule: Q04DX002 (ip), vehicle: saline with Tween-80 96 % of control and 101 % of control | [7] 106 % of control | dose: 200.0 mg/kg/injection, schedule: Q01DX001 (ip), vehicle: saline with Tween-80 102 % of control | dose: 200.0 mg/kg/injection, schedule: Q01DX009 (ip), vehicle: saline with Tween-80 89 % of control and 90 % of control | dose: 200.0 mg/kg/injection, schedule: Q04DX002 (ip), vehicle: saline with Tween-80 93 % of control and 104 % of control | [8] 98 % of control | dose: 400.0 mg/kg/injection, schedule: Q01DX001 (ip), vehicle: saline with Tween-80 107 % of control | dose: 400.0 mg/kg/injection, schedule: Q01DX009 (ip), vehicle: saline with Tween-80 97 % of control | dose: 400.0 mg/kg/injection, schedule: Q04DX002 (ip), vehicle: saline with Tween-80 95 % of control and 101 % of control

O=C1NCCCC1O (configuration not stated)
inactive: dose: 50.0 mg/kg/injection, schedule: Q01DX001 (ip), vehicle: carboxymethylcellulose (CMC) 94 % of control | dose: 100.0 mg/kg/injection, schedule: Q01DX001 (ip), vehicle: carboxymethylcellulose (CMC) 89 % of control | dose: 200.0 mg/kg/injection, schedule: Q01DX001 (ip), vehicle: carboxymethylcellulose (CMC) 105 % of control | dose: 400.0 mg/kg/injection, schedule: Q01DX001 (ip), vehicle: carboxymethylcellulose (CMC) 103 % of control

CCOC(=O)COc1ccc(N=NN(C)c2ccccc2)cc1
inactive: dose: 111.0 mg/kg/injection, schedule: Q01DX Z (ip), vehicle: carboxymethylcellulose (CMC) 102 % of control | dose: 166.0 mg/kg/injection, schedule: Q01DX Z (ip), vehicle: carboxymethylcellulose (CMC) 104 % of control | dose: 250.0 mg/kg/injection, schedule: Q01DX Z (ip), vehicle: carboxymethylcellulose (CMC) 113 % of control

CC(=O)N1c2ccccc2Sc2cc(C(O)(C(F)(F)F)C(F)(F)F)ccc21
inactive: [9] 95 % of control | [10] 95 % of control | dose: 50.0 mg/kg/injection, schedule: Q04DX003 (ip), vehicle: saline with Tween-80 95 % of control | [11] 95 % of control | [7] 91 % of control | [8] 91 % of control

Cc1cccc(C2=N/C(=C\c3c(O)ccc4ccccc34)C2=O)c1
inactive: dose: 100.0 mg/kg/injection, schedule: Q04DX002 (ip), vehicle: saline 120 % of control | dose: 200.0 mg/kg/injection, schedule: Q04DX002 (ip), vehicle: saline 95 % of control | dose: 400.0 mg/kg/injection, schedule: Q04DX002 (ip), vehicle: saline 98 % of control
